In brackets after ≈: the same amount, converted by molar mass. Activity calls are given as the source filed them. The rule behind the calls is not given here.
Assays:
[1] = test system: Streptococcus pyogenes; assay: Antibacterial activity against erythromycin-resistant Streptococcus pyogenes ATCC 19615 assessed as inhibition of visible bacterial growth incubated for 18 hrs by broth microdilution method; format: functional
[2] = test system: Streptococcus agalactiae; assay: Antibacterial activity against erythromycin-resistant Streptococcus agalactiae 19-9 assessed as inhibition of visible bacterial growth incubated for 18 hrs by broth microdilution method; format: functional
[3] = test system: Streptococcus pneumoniae; assay: Antibacterial activity against erythromycin-resistant Streptococcus pneumoniae SPN19-14 assessed as inhibition of visible bacterial growth incubated for 18 hrs by broth microdilution method; format: functional
[4] = test system: Streptococcus pneumoniae; assay: Antibacterial activity against erythromycin-resistant Streptococcus pneumoniae SPN19-13 assessed as inhibition of visible bacterial growth incubated for 18 hrs by broth microdilution method; format: functional
[5] = test system: Streptococcus pneumoniae; assay: Antibacterial activity against erythromycin-resistant Streptococcus pneumoniae SPN19-8 assessed as inhibition of visible bacterial growth incubated for 18 hrs by broth microdilution method; format: functional
[6] = test system: Staphylococcus epidermidis; assay: Antibacterial activity against erythromycin-resistant Staphylococcus epidermidis 19-11 assessed as inhibition of visible bacterial growth incubated for 18 hrs by broth microdilution method; format: functional
[7] = test system: Staphylococcus epidermidis; assay: Antibacterial activity against erythromycin-resistant Staphylococcus epidermidis 19-9 assessed as inhibition of visible bacterial growth incubated for 18 hrs by broth microdilution method; format: functional
[8] = test system: Staphylococcus epidermidis; assay: Antibacterial activity against erythromycin-resistant Staphylococcus epidermidis 19-8 assessed as inhibition of visible bacterial growth incubated for 18 hrs by broth microdilution method; format: functional
[9] = test system: Staphylococcus epidermidis; assay: Antibacterial activity against erythromycin-resistant Staphylococcus epidermidis 19-6 assessed as inhibition of visible bacterial growth incubated for 18 hrs by broth microdilution method; format: functional
[10] = test system: Staphylococcus epidermidis; assay: Antibacterial activity against erythromycin-resistant Staphylococcus epidermidis 19-4 assessed as inhibition of visible bacterial growth incubated for 18 hrs by broth microdilution method; format: functional
[11] = test system: Staphylococcus epidermidis; assay: Antibacterial activity against erythromycin-resistant Staphylococcus epidermidis 19-5 assessed as inhibition of visible bacterial growth incubated for 18 hrs by broth microdilution method; format: functional
[12] = test system: Moraxella catarrhalis; assay: Antibacterial activity against Moraxella catarrhalis BCA 19-5 assessed as inhibition of bacterial growth incubated for 24 hrs by CLSI based broth microdilution method; format: functional; conditions: Moraxella catarrhalis, BCA 19-5, 24 h, read-out: MIC
[13] = test system: Moraxella catarrhalis; assay: Antibacterial activity against Moraxella catarrhalis BCA 19-6 assessed as inhibition of bacterial growth incubated for 24 hrs by CLSI based broth microdilution method; format: functional; conditions: Moraxella catarrhalis, BCA 19-6, 24 h, read-out: MIC
[14] = test system: Moraxella catarrhalis; assay: Antibacterial activity against Moraxella catarrhalis BCA 19-31 assessed as inhibition of bacterial growth incubated for 24 hrs by CLSI based broth microdilution method; format: functional; conditions: BCA 19-31, 24 h
[15] = test system: Haemophilus influenzae; assay: Antibacterial activity against Haemophilus influenzae HIN 19-15 assessed as inhibition of bacterial growth incubated for 20 to 24 hrs by CLSI based broth microdilution method; format: functional; conditions: time 20-24 hrs
[16] = test system: Staphylococcus aureus; assay: Antibacterial activity against Staphylococcus aureus ATCC 700699 assessed as inhibition of visible bacterial growth; format: functional
[17] = test system: Enterococcus faecium; assay: Antibacterial activity against vancomycin-resistant Enterococcus faecium assessed as inhibition of visible bacterial growth; format: functional
[18] = Cytotoxicity against mouse AML12 cells assessed as reduction in cell viability incubated for 48 hrs by MTT assay; format: toxicity, cell-based
[19] = test system: Streptococcus pneumoniae; assay: Potency index, ratio of telithromycin MIC to test compound MIC for antibacterial activity against Streptococcus pneumoniae SPN19-13 assessed as inhibition of visible bacterial growth incubated for 18 hrs by broth microdilution method; format: functional
[20] = test system: Streptococcus pneumoniae; assay: Potency index, ratio of telithromycin MIC to test compound MIC for antibacterial activity against Streptococcus pneumoniae SPN19-8 assessed as inhibition of visible bacterial growth incubated for 18 hrs by broth microdilution method; format: functional
[21] = test system: Staphylococcus epidermidis; assay: Potency index, ratio of telithromycin MIC to test compound MIC for antibacterial activity against erythromycin-resistant Staphylococcus epidermidis 19-11 assessed as inhibition of visible bacterial growth incubated for 18 hrs by broth microdilution method; format: functional
[22] = test system: Staphylococcus epidermidis; assay: Potency index, ratio of telithromycin MIC to test compound MIC for antibacterial activity against erythromycin-resistant Staphylococcus epidermidis 19-9 assessed as inhibition of visible bacterial growth incubated for 18 hrs by broth microdilution method; format: functional
[23] = test system: Staphylococcus epidermidis; assay: Potency index, ratio of telithromycin MIC to test compound MIC for antibacterial activity against erythromycin-resistant Staphylococcus epidermidis 19-8 assessed as inhibition of visible bacterial growth incubated for 18 hrs by broth microdilution method; format: functional
[24] = test system: Staphylococcus epidermidis; assay: Potency index, ratio of telithromycin MIC to test compound MIC for antibacterial activity against erythromycin-resistant Staphylococcus epidermidis 19-6 assessed as inhibition of visible bacterial growth incubated for 18 hrs by broth microdilution method; format: functional
[25] = test system: Staphylococcus epidermidis; assay: Potency index, ratio of telithromycin MIC to test compound MIC for antibacterial activity against erythromycin-resistant Staphylococcus epidermidis 19-5 assessed as inhibition of visible bacterial growth incubated for 18 hrs by broth microdilution method; format: functional
[26] = test system: Staphylococcus epidermidis; assay: Potency index, ratio of telithromycin MIC to test compound MIC for antibacterial activity against erythromycin-resistant Staphylococcus epidermidis 19-4 assessed as inhibition of visible bacterial growth incubated for 18 hrs by broth microdilution method; format: functional
[27] = test system: Streptococcus pneumoniae; assay: Potency index, ratio of telithromycin MIC to test compound MIC for antibacterial activity against Streptococcus pneumoniae SPN19-14 assessed as inhibition of visible bacterial growth incubated for 18 hrs by broth microdilution method; format: functional
[28] = test system: Haemophilus influenzae; assay: Antibacterial activity against Haemophilus influenzae HIN 19-18 assessed as inhibition of bacterial growth incubated for 20 to 24 hrs by CLSI based broth microdilution method; format: functional; conditions: HIN 19-18, time 20-24 hrs
[29] = test system: Haemophilus influenzae; assay: Antibacterial activity against Haemophilus influenzae HIN 20-18 assessed as inhibition of bacterial growth incubated for 20 to 24 hrs by CLSI based broth microdilution method; format: functional; conditions: time 20-24 hrs
[30] = Metabolic stability in human liver microsome assessed as parent compound remaining in absence of NADPH measured at 60 mins by LC-MS/MS analysis; format: ADME; conditions: liver microsomes, read-out: Stability
[31] = Metabolic stability in human liver microsome assessed as parent compound remaining in presence of NADPH measured at 60 mins by LC-MS/MS analysis; format: ADME; conditions: liver microsomes, read-out: Stability
[32] = Metabolic stability in human liver microsome assessed as intrinsic clearance measured at 60 mins by LC-MS/MS analysis; format: ADME; conditions: liver microsomes, read-out: CLH
[33] = Metabolic stability in human liver microsome assessed as half life measured at 60 mins by LC-MS/MS analysis; format: ADME; conditions: liver microsomes
[34] = test system: Streptococcus agalactiae; assay: Antibacterial activity against erythromycin-resistant Streptococcus agalactiae 19-8 assessed as inhibition of visible bacterial growth incubated for 18 hrs by broth microdilution method; format: functional
[35] = test system: Escherichia coli; assay: Antibacterial activity against Escherichia coli ATCC 35218 assessed as inhibition of visible bacterial growth; format: functional, organism-based

Compound	MIC [1] [µg/mL]	MIC [2] [µg/mL]	MIC [3] [µg/mL]	MIC [4] [µg/mL]	MIC [5] [µg/mL]	MIC [6] [µg/mL]	MIC [7] [µg/mL]	MIC [8] [µg/mL]	MIC [9] [µg/mL]	MIC [10] [µg/mL]	MIC [11] [µg/mL]	MIC [12] [µg/mL]	MIC [13] [µg/mL]	MIC [14] [µg/mL]	MIC [15] [µg/mL]	MIC [16] [µg/mL]	CC50 at 48 h [18] [µM]	MIC [28] [µg/mL]	MIC [29] [µg/mL]	other results
CC[C@H]1OC(=O)[C@@](C)(F)C(=O)[C@H](C)[C@@H](O[C@@H]2O[C@H](C)C[C@H](N(C)C)[C@H]2O)[C@](C)(OC)C[C@@H](C)C(=O)[C@H](C)[C@H]2N(CCCOC(=O)Nc3ccc(C(F)(F)F)cc3)C(=O)O[C@]12C	< 0.03	1 (≈ 1.14 µM)	0.125 (≈ 0.143 µM)	0.125 (≈ 0.143 µM)	0.125 (≈ 0.143 µM)	< 0.03	0.25 (≈ 0.285 µM)	0.06 (≈ 0.0685 µM)	0.125 (≈ 0.143 µM)	0.03 (≈ 0.0342 µM)	< 0.03	0.125 (≈ 0.143 µM)	0.125 (≈ 0.143 µM)	0.06 (≈ 0.0685 µM)	4 (≈ 4.57 µM)	16 (≈ 18.3 µM)	19.6			MIC [17]: 16 µg/mL (≈ 18.3 µM)
CC[C@H]1OC(=O)[C@@](C)(F)C(=O)[C@H](C)[C@@H](O[C@@H]2O[C@H](C)C[C@H](N(C)C)[C@H]2O)[C@](C)(OC)C[C@@H](C)C(=O)[C@H](C)[C@H]2N(CCCOC(=O)Nc3ccc4c(c3)CCO4)C(=O)O[C@]12C	< 0.03	2 (≈ 2.35 µM)	0.06 (≈ 0.0706 µM)	0.6 (≈ 0.706 µM)	0.06 (≈ 0.0706 µM)	< 0.03	0.06 (≈ 0.0706 µM)	0.03 (≈ 0.0353 µM)	0.06 (≈ 0.0706 µM)	0.03 (≈ 0.0353 µM)	< 0.03	0.06 (≈ 0.0706 µM)	0.125 (≈ 0.147 µM)	0.06 (≈ 0.0706 µM)	8 (≈ 9.41 µM)		> 100	2 (≈ 2.35 µM)	8 (≈ 9.41 µM)	Ratio [19]: <4; Ratio [20]: <4; Ratio [21]: 4; Ratio [22]: 4; Ratio [23]: 4; Ratio [24]: 4; Ratio [25]: 4; Ratio [26]: 4; Ratio [27]: <4; remaining at 1 h [30]: 89.4%; remaining at 1 h [31]: 0.3%; microsomal CLint [32]: 341 µL/min/mg; half-life [33]: 2 min
CCOc1ccccc1NC(=O)OCCCN1C(=O)O[C@]2(C)[C@@H](CC)OC(=O)[C@@](C)(F)C(=O)[C@H](C)[C@@H](O[C@@H]3O[C@H](C)C[C@H](N(C)C)[C@H]3O)[C@](C)(OC)C[C@@H](C)C(=O)[C@H](C)[C@@H]12	< 0.03	0.25 (≈ 0.293 µM)	0.06 (≈ 0.0704 µM)	0.06 (≈ 0.0704 µM)	0.125 (≈ 0.147 µM)	0.16 (≈ 0.188 µM)	0.5 (≈ 0.587 µM)	0.06 (≈ 0.0704 µM)	0.125 (≈ 0.147 µM)	0.06 (≈ 0.0704 µM)	< 0.03	0.125 (≈ 0.147 µM)	0.125 (≈ 0.147 µM)	0.03 (≈ 0.0352 µM)	4 (≈ 4.69 µM)	16 (≈ 18.8 µM)	> 100	2 (≈ 2.35 µM)	8 (≈ 9.39 µM)	
CC[C@H]1OC(=O)[C@@](C)(F)C(=O)[C@H](C)[C@@H](O[C@@H]2O[C@H](C)C[C@H](N(C)C)[C@H]2O)[C@](C)(OC)C[C@@H](C)C(=O)[C@H](C)[C@H]2N(CCCOC(=O)Nc3cccnc3)C(=O)O[C@]12C	< 0.03	0.25 (≈ 0.309 µM)	0.125 (≈ 0.155 µM)	0.125 (≈ 0.155 µM)	0.125 (≈ 0.155 µM)	0.125 (≈ 0.155 µM)	0.5 (≈ 0.618 µM)	0.125 (≈ 0.155 µM)	125 (≈ 155 µM)	0.25 (≈ 0.309 µM)	0.125 (≈ 0.155 µM)	0.06 (≈ 0.0742 µM)	0.06 (≈ 0.0742 µM)	0.06 (≈ 0.0742 µM)	4 (≈ 4.94 µM)		> 100	4 (≈ 4.94 µM)		MIC [34]: < 0.03 µg/mL; Activity [35]: Active
